Assays:
Aβ40 monomers = Aβ40 monomers (Homo sapiens, UniProt P05067); test: Photo-oxidation of Aβ40 monomers (DNPH dot blot, RP-HPLC, MS, amino acid analysis); type: biochemical; conditions: 4 hour irradiation
Procedure: To evaluate the potency of OPE to selectively photo-oxidize Aβ40 fibrils over the monomeric counterpart, the oxidation state of both Aβ40 fibrils and monomers were characterized and were compared to MB. The carbonyl content of the protein was monitored by DNPH dot blot, which increases as a result of histidine photooxidation.^20
DNPH dot blot was carried out on Aβ40 fibrils and monomers incubated in the dark or under irradiation between 0 to 6 hours (FIGS. 9A and 9B). […] Slightly higher carbonyl content in Aβ fibrils at time 0 h in the presence of MB could be due to short light exposure during sample preparation causing MB to photosensitize the oxidation of Aβ fibrils.
To confirm this observation, Aβ40 monomers were analyzed by reverse phase HPLC (RP-HPLC), mass spectrometry (MS), and amino acid analysis (FIGS. 10A and B), before and after irradiation in the presence of OPE1− and MB.

Aβ40 fibrils [1] = molecular target: T1, Aβ40 fibrils (Homo sapiens, UniProt P05067); test: Effect of oxidation on Aβ40 fibril morphology and secondary structure (TEM, CD); type: biochemical; conditions: irradiated with photosensitizer
T1 construct: mixed with Aβ40 fibrils (5 μM) incubated in Tris pH 8.0 (A) or PB pH 7.4 (B)
T1 sequence (P05067 672-711 limits assumed): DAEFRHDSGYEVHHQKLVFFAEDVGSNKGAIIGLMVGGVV

Aβ40 fibrils [2] = molecular target: T1, Aβ40 fibrils; test: Fluorescence sensing of Aβ40 fibrils over monomers (ADF, LOD); type: binding; conditions: 5 to 1 protein to sensor molar ratio
Procedure: Quantitative assessment of OPE sensor performance towards A1340 fibrils at a 5 to 1 protein to sensor molar ratio was analyzed by calculating an amyloid detector factor using the equation shown in FIG. 13, where F(dye-in-buffer), F(dye+fibrils) and F(dye+monomers) are the integrated emission intensities for sensor alone, sensor in the presence of fibrils, and sensor in the presence of monomers, respectively. Using this equation, positive ADF values indicate selective sensing of fibrils over monomers, while negative ADF values indicate selective sensing of monomers. ADF values close to zero indicate no selective sensing.

Aβ42 peptide = molecular target: T2, Aβ42 peptide (Homo sapiens, UniProt P05067); test: Fluorescence spectra with unincubated (oligomeric) and incubated (fibrillar) Aβ42 peptide; type: binding; conditions: ThT 20 μM, OPE 1 μM, Aβ42 5 μM
T2 construct: in the presence of unincubated (oligomeric) and incubated (fibrillar) Aβ42 peptide (5 μM)
T2 sequence (P05067 672-713 limits assumed): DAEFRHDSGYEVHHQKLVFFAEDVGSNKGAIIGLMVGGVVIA

α-synuclein = test: Excitation and emission spectra with α-synuclein isoforms; type: binding; conditions: 6 days of incubation
Aβ40 fibrils [3] = molecular target: T1, Aβ40 fibrils; test: Fluorescence sensing of Aβ40 fibrils over monomers (ADF, LOD); type: binding
[4] = Aβ40 fibrils produced in pH 7.4 PB
[5] = Aβ40 fibrils produced in pH 8.0 Tris

Chain of Aβ40 monomers (P05067 672-711 limits assumed): as the sequence (P05067 672-711 limits assumed) above

Compound: CN(C)c1ccc2nc3ccc(=[N+](C)C)cc-3sc2c1 [MB, methylene blue, reference compound]
- changes of Aβ40 monomers after irradiation (Aβ40 monomers): become more hydrophilic, present higher m/z ratio, and have a lower histidine content
- Aβ40 fibril morphology after irradiation (TEM) (Aβ40 fibrils [1]): fibrils dissociated and broke into shorter structures

Compound: Cc1ccc2c(c1)sc(-c1ccc(N(C)C)cc1)[n+]2C.[Cl-] [ThT, thioflavin T, reference compound]
- ADF (Amyloid Detection Factor), Aβ40 in PB (Aβ40 fibrils [2]; [4]): 0.23 +/− 0.03
- ADF (Amyloid Detection Factor), Aβ40 in Tris (Aβ40 fibrils [2]; [5]): 0.53 +/− 0.1
- fluorescence increase with fibrillar (incubated) Aβ42 (Aβ42 peptide): large fluorescence increases
- fluorescence increase with oligomeric (unincubated, prefibrillar) Aβ42 (Aβ42 peptide): small fluorescence increases
- detection of prefibrillar α-synuclein aggregates (α-synuclein): only able to detect A53T aggregates after 6 days of incubation
- LOD (Limit of Detection), Aβ40 in PB (Aβ40 fibrils [3]; [4]): 0.69 ± 0.05 µM
- LOD (Limit of Detection), Aβ40 in Tris (Aβ40 fibrils [3]; [5]): 0.65 ± 0.05 µM

— US11759520B1, “Theranostics for protein misfolding diseases” (UNM Rainforest Innovations, priority 2018, dated 2023)
